According to US20110082130A1 (LIGAND PHARMACEUTICALS, INC., priority 2006, published 2011):

biological target: T1, chimeric human H3 receptor (Homo sapiens, UniProt Q9Y5N1); experiment: Chimeric human H3 receptor screening GTP binding assay (inhibition of histamine-stimulated GTP-gamma35S binding, Example 8); format: biochemical; details: 4 μM of the compound, 1 μM histamine, "†" in Ki of Table II, read-out: percent inhibition of the signal obtained with 1 μM histamine
T1 construct: made in house; host or cells: Sf9 insect cells (baculovirus); P2 membrane preparation
Outline: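 Sf9 membranes co-expressing chimeric human H3 receptor and heterotrimeric G-protein, 35 μg per reaction, incubated 60 min at room temperature with 4 μM compound, 1 μM histamine, 10 μM GDP and […] GTP-gamma35S at pH 7.4. Filter-bound radioactivity counted. Result expressed as percent inhibition of the histamine signal after subtracting non-specific binding (10 μM GTP-gammaS).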

T1 sequence (Q9Y5N1 with tags, fused parts or gaps): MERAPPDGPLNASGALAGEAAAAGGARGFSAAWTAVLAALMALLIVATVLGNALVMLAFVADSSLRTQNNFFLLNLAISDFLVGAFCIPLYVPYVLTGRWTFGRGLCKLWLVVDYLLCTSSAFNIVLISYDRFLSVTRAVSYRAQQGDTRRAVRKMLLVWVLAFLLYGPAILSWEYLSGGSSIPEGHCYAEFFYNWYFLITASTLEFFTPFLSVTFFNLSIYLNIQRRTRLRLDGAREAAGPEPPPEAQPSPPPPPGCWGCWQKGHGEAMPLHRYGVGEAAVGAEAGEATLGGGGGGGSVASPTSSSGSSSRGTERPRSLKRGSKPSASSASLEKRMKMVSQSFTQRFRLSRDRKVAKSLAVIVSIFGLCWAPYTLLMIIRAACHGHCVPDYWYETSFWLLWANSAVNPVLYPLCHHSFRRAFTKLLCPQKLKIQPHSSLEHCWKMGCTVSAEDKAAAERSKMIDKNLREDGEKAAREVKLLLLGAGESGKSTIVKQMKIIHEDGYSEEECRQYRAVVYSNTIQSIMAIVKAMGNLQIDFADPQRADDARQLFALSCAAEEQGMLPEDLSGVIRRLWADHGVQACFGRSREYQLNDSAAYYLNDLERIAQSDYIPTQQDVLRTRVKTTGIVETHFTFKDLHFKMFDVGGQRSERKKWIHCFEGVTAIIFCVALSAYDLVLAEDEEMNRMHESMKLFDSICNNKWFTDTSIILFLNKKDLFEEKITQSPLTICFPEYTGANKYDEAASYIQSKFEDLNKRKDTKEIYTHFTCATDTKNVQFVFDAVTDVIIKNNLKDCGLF

Inhibition at 4 µM, ≥ 90%:
Cc1cc(-c2ccc3c(c2)CCN(CC(=O)N2CCN(C4CCC4)CC2)C3)ccc1F [Compound 429, 2-[2-(4-cyclobutylpiperazin-1-yl)-2-oxoethyl]-6-(4-fluoro-3-methylphenyl)-1,2,3,4-tetrahydroisoquinoline]
Cc1cc(C)cc(-c2ccc3c(c2)CCN(CC(=O)N2CCN(C4CCCCC4)CC2)C3)c1 [Compound 457, 2-[2-(4-cyclohexylpiperazin-1-yl)-2-oxoethyl]-6-(3,5-dimethylphenyl)-1,2,3,4-tetrahydroisoquinoline]
O=C(CN1CCc2cc(-c3cccc(Cl)c3)ccc2C1)N1CCN(C2CCC2)CC1 [Compound 401, 6-(3-chlorophenyl)-2-[2-(4-cyclobutylpiperazin-1-yl)-2-oxoethyl]-1,2,3,4-tetrahydroisoquinoline]
CCc1cccc(-c2ccc3c(c2)CCN(CC(=O)N2CCN(C4CCCC4)CC2)C3)c1 [Compound 468, 2-[2-(4-cyclopentylpiperazin-1-yl)-2-oxoethyl]-6-(3-ethylphenyl)-1,2,3,4-tetrahydroisoquinoline]
O=C(CN1CCc2cc(-c3ccc(Cl)cc3)ccc2C1)N1CCN(C2CCCCC2)CC1 [Compound 406, 6-(4-chlorophenyl)-2-[2-(4-cyclohexylpiperazin-1-yl)-2-oxoethyl]-1,2,3,4-tetrahydroisoquinoline]
CCCCc1ccc(-c2ccc3c(c2)CCN(CC(=O)N2CCN(C(C)C)CC2)C3)cc1 [Compound 454, 6-(4-butylphenyl)-2-[2-(4-isopropylpiperazin-1-yl)-2-oxoethyl]-1,2,3,4-tetrahydroisoquinoline]
Cc1ccc(-c2ccc3c(c2)CCN(CC(=O)N2CCN(C4CCCC4)CC2)C3)cc1C [Compound 448, 2-[2-(4-cyclopentylpiperazin-1-yl)-2-oxoethyl]-6-(3,4-dimethylphenyl)-1,2,3,4-tetrahydroisoquinoline]
O=C(CN1CCc2cc(-c3ccc(F)cc3)ccc2C1)N1CCN(C2CCC2)CC1 [Compound 407, 2-[2-(4-cyclobutylpiperazin-1-yl)-2-oxoethyl]-6-(4-fluorophenyl)-1,2,3,4-tetrahydroisoquinoline]
Cc1cc(C)cc(-c2ccc3c(c2)CCN(CC(=O)N2CCN(C4CCCC4)CC2)C3)c1 [Compound 456, 2-[2-(4-cyclopentylpiperazin-1-yl)-2-oxoethyl]-6-(3,5-dimethylphenyl)-1,2,3,4-tetrahydroisoquinoline]
Cc1ccc(-c2ccc3c(c2)CCN(CC(=O)N2CCN(C4CCCCC4)CC2)C3)cc1F [Compound 428, 2-[2-(4-cyclohexylpiperazin-1-yl)-2-oxoethyl]-6-(3-fluoro-4-methylphenyl)-1,2,3,4-tetrahydroisoquinoline]
CC(C)c1ccc(-c2ccc3c(c2)CCN(CC(=O)N2CCN(C4CCCCC4)CC2)C3)cc1 [Compound 445, 2-[2-(4-cyclohexylpiperazin-1-yl)-2-oxoethyl]-6-(4-isopropylphenyl)-1,2,3,4-tetrahydroisoquinoline]
O=C(CN1CCc2cc(-c3ccc(F)cc3)ccc2C1)N1CCN(C2CCCC2)CC1 [Compound 408, 2-[2-(4-cyclopentylpiperazin-1-yl)-2-oxoethyl]-6-(4-fluorophenyl)-1,2,3,4-tetrahydroisoquinoline]
O=C(CN1CCc2cc(-c3cccc(F)c3)ccc2C1)N1CCN(C2CCCC2)CC1 [Compound 411, 2-[2-(4-cyclopentylpiperazin-1-yl)-2-oxoethyl]-6-(3-fluorophenyl)-1,2,3,4-tetrahydroisoquinoline]
O=C(CN1CCc2cc(-c3ccccc3F)ccc2C1)N1CCN(C2CCCC2)CC1 [Compound 415, 2-[2-(4-cyclopentylpiperazin-1-yl)-2-oxoethyl]-6-(2-fluorophenyl)-1,2,3,4-tetrahydroisoquinoline]
O=C(CN1CCc2cc(-c3ccc4ccccc4c3)ccc2C1)N1CCN(C2CCCC2)CC1 [Compound 417, 2-[2-(4-cyclopentylpiperazin-1-yl)-2-oxoethyl]-6-(2-naphthyl)-1,2,3,4-tetrahydroisoquinoline]
Cc1ccc(-c2ccc3c(c2)CCN(CC(=O)N2CCN(C4CCCC4)CC2)C3)cc1 [Compound 436, 2-[2-(4-cyclopentylpiperazin-1-yl)-2-oxoethyl]-6-(4-methylphenyl)-1,2,3,4-tetrahydroisoquinoline]
CC(C)(C)c1ccc(-c2ccc3c(c2)CCN(CC(=O)N2CCN(C4CCCC4)CC2)C3)cc1 [Compound 472, 6-(4-tert-butylphenyl)-2-[2-(4-cyclopentylpiperazin-1-yl)-2-oxoethyl]-1,2,3,4-tetrahydroisoquinoline]
O=C(CN1CCc2cc(-c3ccc4ccccc4c3)ccc2C1)N1CCN(C2CCC2)CC1 [Compound 416, 2-[2-(4-cyclobutylpiperazin-1-yl)-2-oxoethyl]-6-(2-naphthyl)-1,2,3,4-tetrahydroisoquinoline]

same assay, conditions: Table II "Ki", symbol †, 4 μM of the compound, 1 μM histamine, read-out: percent inhibition of the signal obtained with 1 μM histamine

Inhibition at 4 µM, ≥ 90%:
Cc1cc(F)ccc1-c1ccc2c(c1)CCN(CC(=O)N1CCN(C3CCC3)CC1)C2 [Compound 626, 2-[2-(4-cyclobutylpiperazin-1-yl)-2-oxoethyl]-6-(4-fluoro-2-methylphenyl)-1,2,3,4-tetrahydroisoquinoline]
COc1ccc(-c2ccc(-c3ccc4c(c3)CCN(CC(=O)N3CCN(C(C)C)CC3)C4)cc2)cc1 [Compound 501, 2-[2-(4-isopropylpiperazin-1-yl)-2-oxoethyl]-6-(4′-methoxybiphenyl-4-yl)-1,2,3,4-tetrahydroisoquinoline]
COc1ccc(-c2ccc3c(c2)CCN(CC(=O)N2CCN(C4CCCCC4)CC2)C3)cc1C [Compound 542, 2-[2-(4-cyclohexylpiperazin-1-yl)-2-oxoethyl]-6-(4-methoxy-3-methylphenyl)-1,2,3,4-tetrahydroisoquinoline]
O=C(CN1CCc2cc(-c3ccc(Cl)c(Cl)c3)ccc2C1)N1CCN(C2CCC2)CC1 [Compound 594, 2-[2-(4-cyclobutylpiperazin-1-yl)-2-oxoethyl]-6-(3,4-dichlorophenyl)-1,2,3,4-tetrahydroisoquinoline]
O=C(CN1CCc2cc(-c3cc(F)cc(F)c3)ccc2C1)N1CCN(C2CCC2)CC1 [Compound 596, 2-[2-(4-cyclobutylpiperazin-1-yl)-2-oxoethyl]-6-(3,5-difluorophenyl)-1,2,3,4-tetrahydroisoquinoline]
O=C(CN1CCc2cc(-c3cccc(OC(F)(F)F)c3)ccc2C1)N1CCN(C2CCC2)CC1 [Compound 490, 2-[2-(4-cyclobutylpiperazin-1-yl)-2-oxoethyl]-6-[3-(trifluoromethoxy)phenyl]-1,2,3,4-tetrahydroisoquinoline]
CCCOc1ccc(-c2ccc3c(c2)CCN(CC(=O)N2CCN(C4CCCCC4)CC2)C3)cc1 [Compound 546, 2-[2-(4-cyclohexylpiperazin-1-yl)-2-oxoethyl]-6-(4-propoxyphenyl)-1,2,3,4-tetrahydroisoquinoline]
O=C(CN1CCc2cc(-c3ccccc3Oc3ccccc3)ccc2C1)N1CCN(C2CCCC2)CC1 [Compound 576, 2-[2-(4-cyclopentylpiperazin-1-yl)-2-oxoethyl]-6-(2-phenoxyphenyl)-1,2,3,4-tetrahydroisoquinoline]
O=C(CN1CCc2cc(-c3ccc(F)c(F)c3)ccc2C1)N1CCN(C2CCC2)CC1 [Compound 589, 2-[2-(4-cyclobutylpiperazin-1-yl)-2-oxoethyl]-6-(3,4-difluorophenyl)-1,2,3,4-tetrahydroisoquinoline]
O=C(CN1CCc2cc(-c3cc(Cl)cc(Cl)c3)ccc2C1)N1CCN(C2CCC2)CC1 [Compound 592, 2-[2-(4-cyclobutylpiperazin-1-yl)-2-oxoethyl]-6-(3,5-dichlorophenyl)-1,2,3,4-tetrahydroisoquinoline]
COc1ccc(-c2ccc3c(c2)CCN(CC(=O)N2CCN(C4CCCCC4)CC2)C3)cc1F [Compound 504, 2-[2-(4-cyclohexylpiperazin-1-yl)-2-oxoethyl]-6-(3-fluoro-4-methoxyphenyl)-1,2,3,4-tetrahydroisoquinoline]
COc1ccc(OC)c(-c2ccc3c(c2)CCN(CC(=O)N2CCN(C4CCC4)CC2)C3)c1 [Compound 559, 2-[2-(4-cyclobutylpiperazin-1-yl)-2-oxoethyl]-6-(2,5-dimethoxyphenyl)-1,2,3,4-tetrahydroisoquinoline]
CCCCN1CCN(C(=O)CN2CCc3cc(-c4cncnc4)ccc3C2)CC1 [Compound 604, 2-[2-(4-butylpiperazin-1-yl)-2-oxoethyl]-6-pyrimidin-5-yl-1,2,3,4-tetrahydroisoquinoline]
COc1ccc(OC)c(-c2ccc3c(c2)CCN(CC(=O)N2CCN(C(C)C)CC2)C3)c1 [Compound 562, 6-(2,5-dimethoxyphenyl)-2-[2-(4-isopropylpiperazin-1-yl)-2-oxoethyl]-1,2,3,4-tetrahydroisoquinoline]
